Assay results: the NIST ThermoML archive (doi:10.1016/j.jct.2011.11.004)
Values joined by “and” are separate entries in the source; they are usually repeats but may differ in a detail not shown here. Equal entries are not always repeated.

Details: Liquid, Transpiration method

CN(C)CCCN [N,N-dimethyl-1,3-propanediamine]
Details	vapor or sublimation pressure
273.5 K	0.1753 kPa
273.8 K	0.1802 kPa
274.2 K	0.1875 kPa
275.8 K	0.2076 kPa
275.9 K	0.2029 kPa
276.4 K	0.2181 kPa
277.8 K	0.2407 kPa
278.1 K	0.2481 kPa
278.4 K	0.2539 kPa
281.1 K	0.2962 kPa
281.4 K	0.3109 kPa
283.4 K	0.3594 kPa and 0.3558 kPa and 0.3618 kPa
285.8 K	0.4176 kPa
286.2 K	0.4454 kPa
288.1 K	0.5012 kPa and 0.4936 kPa
288.7 K	0.5167 kPa
288.8 K	0.5086 kPa
289.2 K	0.5356 kPa and 0.538 kPa
291.7 K	0.628 kPa
292.1 K	0.6355 kPa and 0.6539 kPa
293 K	0.6977 kPa
294.9 K	0.7794 kPa
295.2 K	0.8075 kPa
296.9 K	0.8821 kPa
297.8 K	0.9313 kPa
298.2 K	0.981 kPa
298.9 K	1.011 kPa
299.7 K	1.058 kPa

CNCCCN [N-methyl-1,3-diaminopropane]
Details	vapor or sublimation pressure [kPa]
276.2 K	0.09113
279.3 K	0.1163
282.3 K	0.1481
285.2 K	0.1855
288.2 K	0.2287
291.2 K	0.2973
292.7 K	0.3328
294.1 K	0.3667
297.1 K	0.4634
298.8 K	0.5298
300.2 K	0.5889
303.2 K	0.7223

CN(C)CCCN(C)C [N,N,N',N'-tetramethyl-1,3-propanediamine]
Details	vapor or sublimation pressure
273.5 K	0.1509 kPa and 0.1417 kPa
274.2 K	0.1541 kPa
275 K	0.1633 kPa
275.6 K	0.1714 kPa
276.1 K	0.1754 kPa
276.6 K	0.1837 kPa
277.1 K	0.191 kPa
278.4 K	0.2056 kPa
279.2 K	0.2168 kPa
281.1 K	0.2546 kPa
283.4 K	0.2873 kPa and 0.3004 kPa
285.8 K	0.3528 kPa
287.6 K	0.4012 kPa
289 K	0.455 kPa
294.3 K	0.6329 kPa
295.7 K	0.6783 kPa
299.2 K	0.8136 kPa and 0.8194 kPa
300.8 K	0.9386 kPa
304.3 K	1.143 kPa
305.8 K	1.227 kPa and 1.226 kPa
309.1 K	1.435 kPa
310.8 K	1.654 kPa
310.9 K	1.663 kPa
315.6 K	2.117 kPa and 2.069 kPa and 2.116 kPa
323.1 K	3.214 kPa

CCN(CC)CCCN [N,N-diethylpropane-1,3-diamine]
Details	vapor or sublimation pressure
277.2 K	0.03765 kPa
279.1 K	0.04448 kPa
280.2 K	0.04785 kPa
283.2 K	0.06153 kPa
286.2 K	0.07622 kPa
287.7 K	0.08442 kPa
288.2 K	0.09379 kPa
289.2 K	0.09614 kPa
291.1 K	0.1087 kPa and 0.1173 kPa
292.1 K	0.1195 kPa
293.2 K	0.1316 kPa
295.2 K	0.1494 kPa and 0.1591 kPa
297.2 K	0.17 kPa
297.3 K	0.1835 kPa and 0.1811 kPa
297.4 K	0.1872 kPa
297.5 K	0.1799 kPa
298.2 K	0.1935 kPa
299.4 K	0.2021 kPa
299.5 K	0.2132 kPa
301.2 K	0.2397 kPa
303.1 K	0.274 kPa and 0.2527 kPa
303.3 K	0.2637 kPa
305.1 K	0.3138 kPa
